Data on 21 compounds can be found in PubChem BioAssay AID687023 (Broad Institute, 2013).

SMILES strings stand for the structures. Where “and” joins values, the source holds several entries; their conditions need not be identical. Identical values can stand only once. Calls of active or inactive are those of the source. No rule for the calls is given here.

The first experiment has as its system Env-mediated cell-cell fusion, plate reader. Put plainly: HIV Env cell-cell fusion inhibitors, dose response, HIV entry, plate reader, dry powder (AID 687023).
Conditions: not given
Take `CC(C)(C)c1ccc(-c2noc(CCC(=O)NCC3CCCO3)n2)cc1` (stereo unspecified): the AC50 is 0.0954 µM and 0.484 µM.
Still for that read-out and setting: as for `CC1(C)CC(NC(=O)C(=O)Nc2ccc(Cl)cc2)CC(C)(C)N1`, the figure is > 70 µM (inactive) and 27.4 µM; as for `CCCn1nc(C(=O)Nc2ccc3nc(N4CCOCC4)sc3c2)ccc1=O`, 4.24 µM and 9.79 µM; as for `O=C(CCc1ccc(S(=O)(=O)N2CCOCC2)cc1)Nc1nc(COc2ccccc2)cs1`, 3.51 µM and 8.07 µM.
Same read-out and setting: as for `COc1ccc(CC(=O)Nc2cccc(S(=O)(=O)N3CCCCCC3)c2)cc1OC`, the figure is 3.95 µM and 1.88 µM; as for `COc1ccc(-c2nn(C)c(=O)c3ccccc23)cc1NC(=O)Cn1nc(C)c2ccccc2c1=O`, 4.03 µM and 23.5 µM; as for `Nc1nonc1C(=O)NCCNCc1c(OCc2ccccc2F)ccc2ccccc12`, 9.38 µM and 3.61 µM.
Same read-out and setting: as for `CCCOc1ccc(S(=O)(=O)NCc2ccncc2)c2ccccc12`, the figure is 0.945 µM and 2.88 µM; as for `CCOc1ccc(S(=O)(=O)NC(C)c2ccncc2)cc1` (stereo unspecified), 1.16 µM and 2.43 µM.

Tested on in a further experiment: not listed separately
The experiment is described as above. Particulars: Env-mediated cell-cell fusion, plate reader; at 1.2 µM (top of the series).
Regarding `Cc1ccc(-c2nnc3ccc4c(C(F)(F)F)cc(C(F)(F)F)nc4n23)cc1`, the activity change, negative = inhibition is 38.4% (inactive).
Still for that read-out and setting: as for `Oc1ccc(CNc2ccccc2F)c2cccnc12`, the figure is 33.1% (inactive); as for `Cc1noc(C)c1S(=O)(=O)Nc1cccc2c1O[C@H](CN(C)Cc1ccc(C(F)(F)F)cc1)[C@@H](C)CN([C@H](C)CO)C2=O`, 53.5% (inactive).

Still in this experiment, the particulars now being: Env-mediated cell-cell fusion, plate reader; at 3.8 µM (top of the series).
As for `CCOc1ccc(OCC)c(S(=O)(=O)NCc2ccncc2)c1`, the activity change, negative = inhibition is 30.3% (inactive).
For the compound `COC(=O)COc1ccc(S(=O)(=O)NCc2ccncc2)cc1`, the activity change, negative = inhibition is 62.5% (inactive).

The experiment is the same for the next values; noted with them: Env-mediated cell-cell fusion, plate reader; at 35 µM (top of the series).
In the case of `COc1ccccc1CCNCc1ccc(OC)c(OCc2ccccc2)c1`, the activity change, negative = inhibition is -63.1% (inactive).
In the case of `Cc1noc(C)c1S(=O)(=O)Nc1cccc2c1O[C@@H](CN(C)Cc1ccc(C(F)(F)F)cc1)[C@H](C)CN([C@H](C)CO)C2=O`, the activity change, negative = inhibition is 15.3% (inactive).
The same measure, in the same setting: as for `N=C1Sc2ccccc2C2=NCCCN12`, the figure is 2.5% (inactive).
Still for that read-out and setting: as for `Cc1noc(C)c1S(=O)(=O)Nc1cccc2c1O[C@@H](CN(C)Cc1ccc(C(F)(F)F)cc1)[C@H](C)CN([C@@H](C)CO)C2=O`, the figure is 56% (inactive); as for `CCOc1ccc(S(=O)(=O)NCc2ccccn2)cc1`, 34.6% (inactive).
Still for that read-out and setting: the result for `Cc1ccc(S(=O)(=O)Nc2cccc3c2O[C@@H](CN(C)Cc2ccc(Cl)c(Cl)c2)[C@@H](C)CN([C@H](C)CO)C3=O)cc1` reads -87.2% (inactive); that for `Cc1ccc(C)n1-c1ccc(C(=O)O)c(O)c1`, 0.014% (inactive).

By AC50 is commonly meant the concentration at which the activity in the assay is half-maximal.
